This note sets out measurements from US20250197368A1 (priority 2020, published 2025).

The test system of assay [1] is Male Sprague Dawley rats. Kind of assay: Elevated plus maze assay. The assay is classed as in vivo. The following applies: for percent time spent on open arms versus vehicle treated rats: rat; for effect in the rat elevated plus maze assay: dosed orally. From the text:
The method, which detects anxiolytic activity, follows that described by Handley and Mithani (Naunyn. Schmied. Arch. Pharmacol., 327, 1-5, 1984). Rodents avoid open spaces (the open arms of an elevated plus-maze). Anxiolytics increase exploratory activity in the open arms, as indicated by increased time spent on the open arms and/or by increased % open-arm entries.
The maze was made from black matte acrylic and consisted of 4 arms of equal length and width (50×10 cm) arranged in the form of a plus sign (+). Two opposite arms were enclosed by 40 cm high walls (closed arms). The two other arms have no walls (open arms). The maze was raised approximately 65 cm above the floor.
Male Sprague Dawley rats (c. 200-300 g) were used for the study. 13 to 15 rats were studied per group.
Compounds were evaluated at three or four doses, administered p.o. 30 minutes to 2 hours before the test, at 5 mL per kg of body weight and its effects compared with vehicle-treated group.-Chlordiazepoxide hydrochloride (5 mg/kg, prepared in 0.9% saline), administered i.p. 30 minutes before the test, was used as reference substance to compare with the vehicle treated group.
The day before the test, rats were weighed. The compounds were prepared at least 24 hours before the test day. 30 minutes after dosing, each rat was placed in the centre of the apparatus and its behaviour was recorded for 5 minutes. The animals' behaviour on the maze was tracked using a camera mounted above the maze and the image analysed using EthoVision XT 13 video tracking software.
The percentage of time spent in the open arms was calculated by dividing the time spent on open arms to the total time in the maze.
Data were analysed by comparing treated groups with vehicle control group using one-way ANOVA followed by post-hoc Dunnett's tests.

The test system of assay [2] is human α3β3γ2 GABAARs. Kind of assay: In vitro electrophysiological recording assay (automated patch-clamp), α3-GABAAR relative efficacy. Conditions: % efficacy normalised to diazepam; GABA EC10-20; concentration generally >= 100 times Ki. Type of assay: cell-based. The method, then: The efficacy of modulators was evaluated using the automated patch-clamp platforms QPatch16 (Sophion, Copenhagen, Denmark) or SyncroPatch 384PE (Nanion, Germany).
For QPatch electrophysiology testing L(tk^−) cells stably expressing human α1β3γ2, α2β3γ2, α3β3γ2, α5β3γ2 GABAARs were used. HEK293 cells stably expressing human α1β3γ2L, α2β3γ2L, α3β3γ2L and α5β3γ2L GABAARs were used for the SyncroPatch 384PE experiments.
All experiments were carried out at room temperature (20-22° C.) using a standard whole cell procedure and physiological solutions. Gigaseals were formed upon execution of a combined suction/voltage protocol with subsequent increased suction leading to the whole-cell configuration.
The currents recorded were acquired at either 1 KHz or 2 KHz and filtered using a Bessel filter. Whole-cell currents were measured at a holding potential of-65 mV (QPatch) or −80 mV (SyncroPatch).
For QPatch experiments, the extracellular solution contained of: 145 mM NaCl, 4 mM KCl, 1 mM MgCl2, 2 mM CaCl2), 10 mM HEPES, 10 mM D-glucose (pH 7.4), and the intracellular solution consisted of: 96 mM KCl, 28 mM CsCl, 25 mM KOH, 4.3 mM CaCl2), 1.4 mM MgCl2, 10 mM EGTA, 10 mM HEPES, 3 mM MgATP (pH 7.2). The osmolarities of the extracellular and intracellular solutions were 305 and 295 mOsm respectively.
For SyncroPatch experiments, the extracellular recording solution contained: 140 mM NaCl, 4 mM KCl, 2 mM CaCl2), 1 mM MgCl2, 10 mM HEPES, 5 mM glucose (pH 7.4 with NaOH and osmolarity of c. 300-310 mOsm). The intracellular recording solution consisted of: 90 mM KCl, 50 mM KF, 1.5 mM MgCl2, 11.1 mM EGTA and 10 mM HEPES (pH 7.2 with KOH and osmolarity of c. 300 mOsm). 2 mM of NaATP was added to the intracellular solution on the day of testing.
The effects of modulators were evaluated in the presence of a submaximal GABA concentration, giving typically less than 30% activation of the response elicited by a saturating GABA concentration. To check and ensure baseline current stability before compound addition, two to five consecutive applications of GABA EC10-20 separated by wash steps were performed before compound addition. The test compound was applied 1 min at least prior to co-application with GABA EC10-20. Following a further wash step, a saturating concentration of GABA was applied at the end of each recording, allowing the accurate evaluation for each cell of the percentage baseline activation elicited by the submaximal GABA applied.
The compounds were first dissolved in DMSO as a 10 mM stock and then further diluted to the testing concentrations so that the final DMSO concentration in the extracellular recording solution was 0.1% (QPatch) or 0.2% (SyncroPatch).
The % efficacy of modulators was determined from the GABA elicited currents recorded in the presence and absence of the test compound, using the formula:
[((compound peak current−leak)−(GABA peak current-leak))/(GABA peak current−leak)]*100,
where ‘leak’ is the leak baseline current at the holding potential, ‘compound peak current’ is the current elicited by co-application of compound and GABA, and ‘GABA peak current’ is the current elicited by GABA alone at the last GABA application before compound addition. The results were presented as ‘relative efficacy’ for each compound generally at a concentration equal or higher than 100 times their determined Ki. The relative efficacy of a compound was calculated by normalising its % efficacy to the corresponding % efficacy of diazepam that was separately determined.
A general note: In patch-clamp work, channel activity is measured electrically.

With `CCCNC(=O)c1c(N)c2cccc(-c3nc(C)ncc3F)c2[nH]c1=O` [Example 40, 4-Amino-8-(5-fluoro-2-methyl-pyrimidin-4-yl)-2-oxo-N-propyl-1H-quinoline-3-carboxamide], in assay [1] (0.3, 1 and 3 mg/kg p.o.), the “percent time spent on open arms versus vehicle treated rats” value (from here on “percent time spent”) is recorded as “significantly higher”. The “effect in the rat elevated plus maze assay” value (“effect” for short) in assay [1] is recorded as “anxiolytic-like effects”. In addition, in assay [2], the “α3-GABAAR Relative Efficacy (vs. Diazepam)” value (shortened to “α3-GABAAR Relative Efficacy”) amounted to 0.31.
As for `CCCNC(=O)c1c(N)c2cccc(-c3cnc(C)cc3OC)c2[nH]c1=O` [Example 18, 4-Amino-8-(4-methoxy-6-methyl-3-pyridyl)-2-oxo-N-propyl-1H-quinoline-3-carboxamide], the “percent time spent” value in assay [1] (1 and 3 mg/kg p.o.) is reported as “significantly higher”. The “effect” value in assay [1] was “anxiolytic-like effects”. Moreover, the “α3-GABAAR Relative Efficacy” value in assay [2] is 0.21.
`CCCNC(=O)c1c(N)c2cccc(-c3cnccc3OC)c2[nH]c1=O` [Example 17, 4-Amino-8-(4-methoxy-3-pyridyl)-2-oxo-N-propyl-1H-quinoline-3-carboxamide]: the “percent time spent” value in assay [1] (1, 3, and 10 mg/kg p.o.) is “significantly higher”. For the same compound, the “effect” value in assay [1] was “anxiolytic-like effects”. Also, in assay [2], the “α3-GABAAR Relative Efficacy” value turned out to be 0.42.
